According to ChEMBL document CHEMBL3886406, “Substituted pyrrolo[2,3-b]pyridines as ITK and JAK inhibitors” (2015):

Target: T1, Tyrosine-protein kinase ITK/TSK (Homo sapiens, UniProt Q08881)
T1 sequence (Q08881 whole entry): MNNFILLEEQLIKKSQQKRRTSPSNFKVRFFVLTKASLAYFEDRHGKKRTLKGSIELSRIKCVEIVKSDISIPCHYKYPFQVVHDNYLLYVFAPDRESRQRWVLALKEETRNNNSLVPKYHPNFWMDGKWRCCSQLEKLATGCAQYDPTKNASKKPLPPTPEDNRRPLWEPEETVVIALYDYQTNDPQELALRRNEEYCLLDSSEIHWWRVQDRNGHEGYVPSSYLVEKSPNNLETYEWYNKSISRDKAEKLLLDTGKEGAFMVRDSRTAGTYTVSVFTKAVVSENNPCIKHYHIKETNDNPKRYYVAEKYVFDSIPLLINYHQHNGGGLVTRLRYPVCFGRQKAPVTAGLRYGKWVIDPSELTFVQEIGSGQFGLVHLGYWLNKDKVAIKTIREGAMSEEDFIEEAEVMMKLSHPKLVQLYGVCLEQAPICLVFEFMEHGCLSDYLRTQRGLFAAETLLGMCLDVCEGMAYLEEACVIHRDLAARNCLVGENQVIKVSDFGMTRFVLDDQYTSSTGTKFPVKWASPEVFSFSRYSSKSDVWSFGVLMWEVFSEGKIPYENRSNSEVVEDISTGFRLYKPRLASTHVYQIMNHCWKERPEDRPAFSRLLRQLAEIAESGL
Experiment: Biochemical Inhibition Assay: 1H-pyrrolo[2,3-b]pyridine, 1H-pyrazolo[3,4-b]pyridine and 5H-pyrrolo[2,3-b]pyrazine series of compounds exhibited over >100 fold selective against Janus and TEC family of kinases except for the BMX and TXK it had activity of 30 and 45 nM respectively.

Compound | IC50
C=CC(=O)Nc1cccc(-c2cnc3[nH]cc(-c4cccc(S(=O)(=O)N(CC)CC)c4)c3c2)c1 | in the range around 35 nM
C=CC(=O)Nc1cccc(-c2cnc3[nH]cc(-c4cc5ccccc5[nH]4)c3n2)c1 | in the range around 35 nM

Results, then the compound that gave them:

IC50 | Compound
in the range around 35 nM | C=CC(=O)Nc1cccc(-c2cnc3[nH]cc(C)c3c2)c1
in the range around 72.4 nM | C=CC(=O)Nc1cccc(-c2cnc3[nH]cc(-c4cccc(C)c4F)c3c2)c1
in the range around 35 nM | C=CC(=O)Nc1cccc(-c2cnc3[nH]cc(Cl)c3c2)c1
